Assay results taken from US9849435B2, “Maleic anhydride polymer-stabilized microcapsules” (Firmenich SA, priority 2013, dated 2017).

Legend:
[1] = Oil properties: Log P; assay type: physicochemical; details: oil ingredient
[2] = Oil properties: volatility; assay type: physicochemical; details: oil ingredient

SMILES	Log P [1]	Volatility [2] [µg/L]	logP [1]
C=CC(C)CCCC(C)(C)O (centres unmarked) [Dihydromycenol]	3.47	1391	–
C/C=C/C(=O)C1C(C)C=CCC1(C)C (centres unmarked) [Delta-Damascone]	4.16	371	–
OCCc1ccccc1 [Phenylethyl Alcohol]	–	–	1.52
C=C(C)[C@H]1CC=C(C)CC1 [Limonene]	4.38	14183	–
CC(=O)/C=C/C1=C(C)CCCC1(C)C [β-Ionone]	3.012	–	–
